Four compounds from ChEMBL document CHEMBL1148215, “Lipoxygenase inhibitory constituents from Periploca aphylla” (J Nat Prod, 2004) can be followed below.

A short description of this assay: Inhibition of Lipoxygenase 1B.

As to `Oc1cc(O)c2c(c1)O[C@H](c1ccc(O)c(Oc3cc([C@H]4Oc5cc(O)cc(O)c5C[C@@H]4O)ccc3O)c1)[C@@H](O)C2`, half-maximal inhibition (IC50) required 19.7 µM.
For the compound `CC(C)(O)/C=C/C1=CC(=O)[C@H](O)C[C@]1(C)O`, the IC50 (in general, the concentration that inhibits the measured activity by half) worked out at 150 µM.
With `Oc1cc(O)c2c(c1)O[C@H](c1ccc(O)c(Oc3cc(O)c4c(c3)O[C@H](c3ccc(O)c(O)c3)[C@H](O)C4)c1)[C@H](O)C2` the figure was 13.5 µM; with `O=c1cc(-c2ccccc2)oc2cc(O)c(O)c(O)c12` [BAICALEIN], 22.6 µM.
